The values below come from BindingDB's records for patent US11220494 (Pfizer Inc., 2022).

For the experiment, the target named is Cyclin-dependent kinase 6/G1/S-specific cyclin-D3 (Homo sapiens, UniProt Q00534+P30281). The experiment is described as follows: Mobility Shift Assay. As to the method:
The purpose of the CDK6/Cyclin D3 assay is to evaluate the inhibition (% inhibition, Kiapp and Ki values) in the presence of small molecule inhibitors by using a fluorescence based microfluidic mobility shift assay. […] The mobility shift assay electrophoretically separates the fluorescently labeled peptides (substrate and phosphorylated product) following the kinase reaction. Both substrate and product are measured and the ratio of these values is used to generate % conversion of substrate to product by the LabChip EZ Reader. […] The reaction was stopped after 95 minutes by the addition of 50 μL of 30 mM EDTA. Ki determinations were made from a plot of the fractional velocity as a function of inhibitor concentration fit to the Morrison equation with the enzyme concentration as a variable.

Cyclin-dependent kinase 6/G1/S-specific cyclin-D3, sequence (Q00534 whole entry): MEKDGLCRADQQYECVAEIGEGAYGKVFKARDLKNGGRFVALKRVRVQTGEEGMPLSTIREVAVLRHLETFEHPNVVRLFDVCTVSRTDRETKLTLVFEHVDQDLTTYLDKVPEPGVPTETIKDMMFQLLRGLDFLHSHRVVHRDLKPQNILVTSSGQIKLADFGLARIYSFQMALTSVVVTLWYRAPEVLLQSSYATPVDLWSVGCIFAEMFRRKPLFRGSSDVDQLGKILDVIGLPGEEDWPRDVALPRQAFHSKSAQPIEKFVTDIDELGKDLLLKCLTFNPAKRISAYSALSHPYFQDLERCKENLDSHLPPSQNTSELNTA
Cyclin-dependent kinase 6/G1/S-specific cyclin-D3, sequence (P30281 whole entry): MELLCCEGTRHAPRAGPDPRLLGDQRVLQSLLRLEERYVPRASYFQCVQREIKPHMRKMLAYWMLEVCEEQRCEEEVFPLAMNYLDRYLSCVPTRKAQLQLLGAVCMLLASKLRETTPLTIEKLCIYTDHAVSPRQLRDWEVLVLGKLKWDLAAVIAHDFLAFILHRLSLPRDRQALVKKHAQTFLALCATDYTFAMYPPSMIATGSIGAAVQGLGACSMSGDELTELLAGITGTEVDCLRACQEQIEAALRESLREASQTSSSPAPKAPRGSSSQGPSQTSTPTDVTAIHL

`CC(C)n1c([C@H](C)O)nc2c(F)cc(-c3cc(N[C@@H]4CCN(S(C)(=O)=O)C[C@H]4O)ncc3Cl)cc21` [US11220494, Example E01]: the Ki (as a rule, the dissociation constant of the complex between target and ligand, obtained from inhibition or displacement) was found to be 1.4 nM.
